Data from patent US7312219B2, “Heteroaromatic inhibitors of fructose 1,6-bisphosphatase” (Metabasis Therapeutics, Inc., priority 1998, dated 2007).
Where a name gives a salt, the structure may show the parent alone. Read-outs that look alike come from different tables or passages of the source.

Key:
[1] = test system: Fasted Rats; assay: Blood Glucose Lowering Following Intravenous Administration to Fasted Rats; type: in vivo, rat; details: 18 h fasted Sprague Dawley rats, 1 hour, relative to saline-treated controls
Experimental: Inhibitors were disolved in water and the solution adjusted to neutrality with NaOH. Blood samples were obtained from the tail vein of conscious animals just prior to injection and after 1 hour. Blood glucose was measured using a HemoCue Inc. glucose analyzer according to the instructions of the manufacturer.

[2] = Estimation of the Oral Bioavailability of Phosphonic Acids and their Prodrugs; type: in vivo, rat; details: fasted rats, oral 10–50 mg/kg, 24 h urinary recovery of phosphonic acid, oral vs intravenous
Experimental: Phosphonic acids were dissolved in water, and the solution adjusted to neutrality with sodium hydroxide. Prodrugs were dissolved in 10% ethanol/90% polyethlene glycol (mw 400). Compound was administered by oral gavage to 18-hour fasted Sprague-Dawley rats (220–250 g) at doses ranging from 10–50 mg/kg. The rats were subsequently placed in metabolic cages and urine was collected for 24 hours. The quantity of phosphonic acid excreted into urine was determined by HPLC analysis as described in Example G. In a separate study, urinary recovery was determined following intravenous (tail vein) administration of compound (in the case of the prodrugs, the appropriate parent phosphonic acid was administered i.v.).

[3] = test system: Fasted Rat; assay: Glucose Lowering Following Oral Administration to the Fasted Rat; type: in vivo; details: oral gavage, 18-hour fasted rats, relative to saline controls
Experimental: Compounds were administered by oral gavage to 18-hour fasted, Sprague Dawley rats (250–300 g, n =3/4/group). Phosphonic acids were prepared in deionized water, and the solution adjusted to neutrality with solidum hydroxide. Prodrugs were dissolved in polyethylene glycol (mw 400). […] The table below indicates the maximum glucose lowering achieved relative to control animals dosed with saline.

[4] = test system: Gluconeogenesis in Rat Hepatocytes; assay: Inhibition of Gluconeogenesis in Rat Hepatocytes; type: cell-based; details: 10 mM lactate, 1 mM pyruvate, 1 hour incubation, read-out: IC50 Glucose Production
Experimental: Hepatocytes were prepared from overnight fasted Sprague-Dawley rats (250–300 g) according to the procedure of Berry and Friend (Berry, M. N., Friend, D. S., 1969, J. Cell. Biol. 43, 506–520) as modified by Groen (Groen, A. K., Sips, H. J., Vervoorn, R. C., Tager, J. M. , 1982, Eur. J. Biochem. 122, 87–93). Hepatocytes (75 mg wet weight/ml) were incubated in 1 ml Krebs-bicarbonate buffer containing 10 mM Lactate, 1 mM pyruvate, 1 mg/ml BSA, and test compound concentrations from 1 to 500 μM. Incubations were carried out in a 95% oxygen, 5% carbon dioxide atmosphere in closed, 50-ml Falcon tubes submerged in a rapidly shaking water bath (37° C.). After 1 hour, an aliquot (0.25 ml) was removed, transferred to an Eppendorf tube and centrifuged. 50 μl of supernatant was then assayed for glucose content using a Sigma Glucose Oxidase kit as per the manufacturer's instructions.

[5] = Oral Absorption Determinations of Prodrugs in the Rat; details: normal fed rats; for % excreted i.p.: 30 mg/kg intraperitoneal; for % excreted i.p. / % excreted p.o.: parent compound 3.1 in 24 h urine; for % excreted p.o.: 30 mg/kg oral gavage; for % absorption: 30 mg/kg, urinary excretion oral vs intraperitoneal
[6] = Analysis of Drug Levels and Liver Accumulation in Rats; type: in vivo, rat; details: fasted rats, 10 mgs/kg i.v., one hour post injection; for concentration at 1 h: Sprague-Dawley, rat, iv, read-out: Plasma Conc.; for Plasma Conc. / concentration at 1 h: plasma
Experimental: The compound was dissolved in water and the solution adjusted to neutrality with NaOH. One hour post injection rats were anesthetized with halothane and a liver biopsy (approx. 1 g) was taken as well as a blood sample (2 ml) from the posterior vena cava. A heparin flushed syringe and needle were used for blood collection. The liver sample was immediately homogenized in ice-cold 10% perchloric acid (3 ml), centrifuged, and the supernatant neutralized with ⅓rd volume of 3 M KOH/3 M KHCO3. […] Plasma was prepared from the blood sample by centrifugation and extracted by addition of methanol to 60% (v/v). The methanolic extract was clarified by centrifugation and filtration and then analyzed by HPLC as described above.

[7] = Rattus norvegicus, iv, 10 mg/kg i.v.

CCCc1cnc(N)nc1-c1ccc(P(=O)(O)O)o1 [Compound 16.1, 2-amino-5-propyl-4-[2-(5-phosphono)furanyl]pyrimidine]
melting point: 258 to 259 °C

CCCSc1oc(N)nc1-c1ccc(P(=O)(O)O)o1 [Compound 10.43, 2-Amino-5-propylthio-4-[2-(5-phosphono)furanyl]oxazole]
inhibition in vivo at 10 mg/kg [1, 7]: 61%

Cc1nc(-c2ccc(P(=O)(OCOC(=O)C(C)(C)C)OCOC(=O)C(C)(C)C)o2)c(CC(C)C)s1 [Compound 20.3, 2-Methyl-5-isobutyl-4-{2-[5-(dipivaloyloxymethyl)phosphono]furanyl}thiazole]
% Oral bioavailability [2]: 17.5%

CSc1[se]c(N)nc1-c1ccc(P(=O)(O)O)o1 [Compound 3.71, 2-Amino-5-methylthio-4-[2-(5-phosphono)furanyl]selenazole]
i.v. Glucose Lowering, % ([1]; 10 mg/kg i.v.): 72%

COC(=O)C(C)NP(=O)(Oc1ccccc1)c1ccc(-c2nc(N)sc2CC(C)C)o1 (stereo not shown) [Compound 31.6, 2-amino-5-isobutyl-4-{2-[5-(O-phenyl-N-(1-methoxycarbonyl)ethyl)phosphonamido]furanyl}thiazole]
% Glucose Lowering (maximum) ([3]; dose 10 mg/kg, time point 3 h): 60%
IC50 [4]: 2300 nM
% Oral bioavailability [2]: 19%

CCOC(=O)CNP(=O)(Oc1ccccc1)c1ccc(-c2nc(N)sc2CC(C)C)o1 (stereo not shown) [Compound 31.8, 2-amino-5-isobutyl-4-{2-[5-(O-phenyl-N-ethoxycarbonylmethyl)phosphonamido]furanyl}thiazole]
IC50 [4]: 3000 nM
% Oral bioavailability [2]: 14%

CC(C)Cc1sc(N)nc1-c1ccc(P2(=O)OCCC(c3cc(Cl)cc(Cl)c3)O2)o1 (stereo not shown) [Compound 19.48, 2-Amino-5-isobutyl-4-{2-[5-(1-(3,5-dichlorophenyl)-1,3-propyl)phosphono]furanyl}thiazole]
% Glucose Lowering (maximum) ([3]; dose 30 mg/kg, time point 2 h): 63%
% excreted i.p. [5]: 11.3%
% excreted p.o. [5]: 11.6%
% absorption [5]: 100%
IC50 [4]: 6500 nM
% Oral bioavailability [2]: 12%

CC(C)Cc1sc(N)nc1-c1ccc(P2(=O)OCCC(c3ccncc3)O2)o1 (stereo not shown) [Compound 19.18, 2-Amino-5-isobutyl-4-[2-{5-[1-(4-pyridyl)-propan-1,3-yl]phosphonol}furanyl)-thiazole]
IC50 [4]: 10000 nM

CC(C)Cc1sc(N)nc1-c1ccc(P2(=O)OCCC(c3cccc(Cl)c3)O2)o1 (stereo not shown) [Compound 19.46, 2-Amino-5-isobutyl-4-{2-[5-(1-(3-chlorophenyl)-1,3-propyl)phosphono]furanyl}thiazole]
% Glucose Lowering (maximum) ([3]; dose 30 mg/kg, time point 2 h): 53%

Nc1nc(C(=O)OCP(=O)(O)O)c(Br)s1 [Compound 18.2, 2-amino-5-bromo-4-phosphonomethoxycarbonylthiazole]
inhibition in vivo at 10 mg/kg [1, 7]: 80%

CCc1c(SC#N)cc(OCP(=O)(O)O)c2nc(N)sc12 [Compound 41.1, 2-amino-7-ethyl-6-thiocyano-4-phosphonomethoxybenzothiazole]
inhibition in vivo at 10 mg/kg [1, 7]: 80%

2-Methyl-5-isobutyl-4-{2-[5-bis(thiobenzoylmethyl)phosphono]furanyl}thiazole [Compound 19.9]
% Oral bioavailability [2]: 18.5%

CCOC(=O)OCOP(=O)(OCOC(=O)OCC)c1ccc(-c2nc(N)sc2CC(C)C)o1 [Compound 20.9, 2-Amino-5-isobutyl-4-{-2-[5-bis(ethoxycarbonyloxymethyl)phosphono]-furanyl}thiazole]
% Glucose Lowering (maximum) ([3]; dose 90 mg/kg, time point 3 h): 67%
IC50 [4]: 2200 nM
% Oral bioavailability [2]: 17.4%

Cc1nc(-c2ccc(P3(=O)OCCC(c4ccncc4)O3)o2)c(CC(C)C)s1 (stereo not shown) [Compound 19.17, 5-Isobutyl-2-methyl-4-{2-[5-(1-(4-pyridyl)-1,3-propyl)phosphono]furanyl}-thiazole]
% Oral bioavailability [2]: 16.2%

CCc1sc(N)nc1C(=O)OCP(=O)(O)O [Compound 18.3, 2-amino-5-ethyl-4-phosphonomethoxycarbonylthiazole]
inhibition in vivo at 10 mg/kg [1, 7]: 75%

Cc1nc(-c2ccc(P(=O)(OCOC(=O)C(C)(C)C)OCOC(=O)C(C)(C)C)o2)cs1 [Compound 20.1, 2-methyl-4-[2-(5-dipivaloyloxymethylphosphono)furanyl]-thiazole]
% Oral bioavailability [2]: 46%

Cc1nc(-c2ccc(P(=O)(O)O)o2)c(CC(C)C)s1 [Compound 3.2, 2-Methyl-5-isobutyl4-[2-(5-phosphono)furanyl]thiazole]
inhibition in vivo at 30 mg/kg ([1]; Rattus norvegicus, iv, 30 mg/kg i.v.): 55%

Nc1nc(-c2ccc(P(=O)(O)O)o2)c(-c2cccs2)s1 [Compound 6.3]
inhibition in vivo at 10 mg/kg [1, 7]: 24%

Nc1nc(-c2ccc(P(=O)(O)O)o2)c(C2CC2)s1 [Compound 3.27, 2-Amino-5-cyclopropyl-4-[2-(5-phosphono)furanyl]thiazole]
% Glucose Lowering (maximum) ([3]; dose 60 mg/kg, time point 3 h): 61%
% Oral bioavailability [2]: 32%

CCc1sc(N)nc1-c1ccc(P(=O)(O)O)o1 [Compound 3.21, 2-Amino-5-ethyl-4-[2-(5-phosphono)furanyl]thiazole]
Plasma Conc. [6]: 25 ± 1 µM

CC(C)Cc1sc(N)nc1-c1ccc(P2(=O)OCCC(c3ccc(F)c(Br)c3)O2)o1 (stereo not shown) [Compound 19.42, 2-Amino-5-isobutyl-4-{2-[5-(1-(4-fluoro-3-bromophenyl)-1,3-propyl)phosphono]furanyl}thiazole]
% Glucose Lowering (maximum) ([3]; dose 30 mg/kg, time point 3 h): 26%
% excreted i.p. [5]: 15.4%
% excreted p.o. [5]: 8.1%
% absorption [5]: 52%
% Oral bioavailability [2]: 10%

Cc1ccc(OCP(=O)(O)O)c2nc(N)sc12 [Compound 35.3, 2-Amino-4-phosphonomethoxy-7-methylbenzothiazole]
inhibition in vivo at 10 mg/kg [1, 7]: 65%

CCCSc1sc(N)nc1-c1ccc(P(=O)(O)O)o1 [Compound 3.58, 2-Amino-5-propylthio-4-[2-(5-phosphono)furanyl]thiazole hydrobromide]
inhibition in vivo at 10 mg/kg [1, 7]: 82%
IC50 ([4]; Hepatocyte): 1200 nM

CCCc1oc(N)nc1-c1ccc(P(=O)(O)O)o1 [Compound 10.2, 2-Amino-5-propyl-4-[2-(5-phosphono)furanyl]oxazole]
% Glucose Lowering (maximum) ([3]; dose 90 mg/kg, time point 3 h): 36%
concentration at 1 h [6]: 22 ± 1.5 µM
bioavailability ([2]; Sprague-Dawley, rat, urine): 22%

CC(C)Cc1sc(N)nc1-c1ccc(P(=O)(OCOC(=O)C(C)(C)C)OCOC(=O)C(C)(C)C)o1 [Compound 20.4, 2-Amino-5-isobutyl-4-{2-[5-(dipivaloyloxymethyl)phosphono]furanyl}thiazole]
% Oral bioavailability [2]: 11%

Nc1ccc(C2CC2)c(-c2ccc(P(=O)(O)O)o2)n1 [Compound 15.20, 2-Amino-5-cyclopropyl-6-[2-(5-phosphono)furanyl]pyridine]
concentration at 1 h [6]: 66.3 ± 3.9 µM
Liver Conc. [6]: 13.1 ± 2.3 nmol/g
inhibition in vivo at 10 mg/kg [1, 7]: 24%

CC(C)Cc1sc(Br)nc1-c1ccc(P(=O)(O)O)o1 [Compound 5.1, 2-bromo-5-isobutyl-4-[2-(5-phosphono)furanyl]thiazole]
Liver Conc. [6]: 6.7 ± 0.7 nmol/g
Plasma Conc. [6]: 100 ± 5.7 µM

CCOC(=O)c1sc(N)nc1-c1ccc(P(=O)(O)O)o1 [Compound 3.25, 2-Amino-5-ethoxycarbonyl-4-[2-(5-phosphono)furanyl]thiazole]
inhibition in vivo at 10 mg/kg [1, 7]: 76%
